Data reported in PubChem BioAssay (NCI).
“And” between values parts separate entries of the source, which are not always exact repeats. Equal entries are not always repeated.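 Method: 48-hour compound exposure of cells in 96-well plates, five concentrations, linear interpolation of endpoints. At the GI50, growth is halved. TGI denotes the concentration required for complete inhibition of growth.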

Assays:
Experiment in all cases: growth of human tumour cells (NCI), 48 h
U251 CNS = system: U251 CNS
IGROV1 ovarian = system: IGROV1 ovarian
CAKI-1 renal = system: CAKI-1 renal
M19-MEL melanoma = system: M19-MEL melanoma
HCC-2998 colon = system: HCC-2998 colon
RXF 393 renal = system: RXF 393 renal
786-0 renal = system: 786-0 renal
OVCAR-4 ovarian = system: OVCAR-4 ovarian
RPMI-8226 leukemia = system: RPMI-8226 leukemia

SMILES | TGI (U251 CNS) | TGI (IGROV1 ovarian) | TGI (CAKI-1 renal) | TGI (M19-MEL melanoma) | TGI (HCC-2998 colon) | TGI (RXF 393 renal) | TGI (786-0 renal) | TGI (OVCAR-4 ovarian) | TGI (RPMI-8226 leukemia) | GI50 (U251 CNS) | GI50 (IGROV1 ovarian) | GI50 (CAKI-1 renal) | GI50 (M19-MEL melanoma) | GI50 (RXF 393 renal) | GI50 (786-0 renal) | GI50 (OVCAR-4 ovarian) | GI50 (RPMI-8226 leukemia) | GI50 (HCC-2998 colon)
COC(=O)C1C2CC3C(OC(=O)C31)C2I (stereo not drawn) | > 100 µM | > 100 µM | > 100 µM | > 100 µM | > 100 µM | > 10 µM | > 100 µM | > 100 µM | > 100 µM | – | – | – | – | – | – | – | – | –
CCC[CH2][Sn]([CH2]CCC)([O]C(=O)c1cc(OC)c(OC)c(OC)c1)[O]C(=O)c1cc(OC)c(OC)c(OC)c1 | 2.55 µM | 2.73 µM | 1.31 µM | 2.02 µM | – | 1.12 µM | 2.57 µM | 2.9 µM | 4.5 µM | 1.28 µM | 1.32 µM | 0.3 µM | 0.749 µM | 0.297 µM | 1.29 µM | 1.48 µM | 0.445 µM | –
COc1cc(C2=Nc3c/c(=C\c4c(O)[nH]c5ccc(Cl)cc45)ccc3=N2)cc(OC)c1OC | 3.91 µM | 20.3 µM | 27.8 µM | – | 21.8 µM | 7.38 µM | 9.91 µM | 7.9 µM | 5.77 µM | 1.79 µM | 5.46 µM | 5.5 µM | – | 2.78 µM | 2.89 µM | 2.18 µM | 2.04 µM | 4.44 µM
CCNC(=O)Nc1ccc(-c2nc3c(c(N4CCOC[C@@H]4C)n2)CCN(C2COC2)C3)cc1 | > 100 µM | 5.38 µM and 0.751 µM | > 31.5 µM | – | > 100 µM | 0.727 µM and 0.857 µM | 29.1 µM and > 10 µM | 1.71 µM and > 7.24 µM | 49 µM and > 8.49 µM | 0.357 µM and 0.413 µM | 0.115 µM and 0.071 µM | 0.586 µM and 0.179 µM | – | 0.137 µM and 0.125 µM | 0.386 µM and 0.278 µM | 0.154 µM and 0.259 µM | 0.286 µM and 0.218 µM | 0.748 µM and 0.398 µM
Nc1cccc(-c2nc3sccn3c2-c2ccnc(NCCCNS(=O)(=O)c3ccc(C(F)(F)F)cc3)n2)c1 | > 100 µM | 23.4 µM | 72.1 µM | – | 92 µM | > 100 µM | > 100 µM | 22.8 µM | 6.54 µM | 5.87 µM | 3.75 µM | 3.25 µM | – | 6.29 µM | 5.74 µM | 3.27 µM | 2.45 µM | 5.29 µM
CN(C)c1cc2c(Nc3ccc4nc(Cc5ccccc5)[nH]c4c3)ncnc2cn1 | > 25 µM | > 25 µM | > 25 µM | – | > 25 µM | > 25 µM | > 20.3 µM | > 25 µM | > 25 µM | > 17.5 µM | 9.21 µM | 9.82 µM | – | 12 µM | 12.5 µM | > 20.4 µM | 11.4 µM | > 25 µM
C[C@@]12CCC[C@@](C)(C(=O)O)C1CC[C@]13C=C(CO)[C@](O)(CCC12)C3 (stereo partly drawn) | > 100 µM | > 100 µM | > 100 µM | – | > 100 µM | > 100 µM | > 100 µM | > 100 µM | > 100 µM | > 100 µM | > 100 µM | > 100 µM | – | > 100 µM | > 100 µM | > 100 µM | > 100 µM | > 100 µM
COc1c(Nc2ncc(Cl)c(N[C@@H]3[C@H]4C=CC(C4)[C@@H]3C(N)=O)n2)ccc2c1CC[C@@H](N1CCOCC1)CC2 | 15.7 µM | 35.8 µM | 14.2 µM | – | 23.6 µM | 6.54 µM | 12.2 µM | 23 µM | 28.5 µM | 3.2 µM | 5.3 µM | 3.08 µM | – | 1.64 µM | 1.97 µM | 3.68 µM | 4.28 µM | 9.61 µM
O=[N+]([O-])c1ccc(Oc2cccnc2)c([N+](=O)[O-])c1 | 12.7 µM | > 100 µM | 22.9 µM | – | 41.7 µM | 14.7 µM | 26.5 µM | > 100 µM | 62.6 µM | 3.12 µM | 3.95 µM | 2.26 µM | – | 3.8 µM | 3.43 µM | 6.4 µM | 4.07 µM | 6.53 µM
c1ccc2c(c1)nnn1c3cnccc3nc21 | > 100 µM | > 100 µM | > 100 µM | > 100 µM | > 100 µM | 66.3 µM | > 100 µM | 96.6 µM | 58.8 µM | – | – | – | – | – | – | – | – | –
NC(=O)c1cccc(N)c1 | > 100 µM | > 100 µM | > 100 µM | – | > 100 µM | > 100 µM | > 100 µM | > 100 µM | > 100 µM | > 100 µM | > 100 µM | > 100 µM | – | > 100 µM | > 100 µM | > 100 µM | > 100 µM | > 100 µM
COc1cc2c3c(n(CCCN=[N+]=[N-])c(=O)c2cc1OC)-c1ccc(N)cc1C3=O | 0.766 µM | 0.637 µM | 2.8 µM | – | 0.856 µM | 0.468 µM | 0.431 µM | 2.59 µM | 0.446 µM | 0.0832 µM | 0.153 µM | 0.132 µM | – | 0.189 µM | 0.16 µM | 0.608 µM | 0.0306 µM | 0.258 µM
O=c1oc2c(Br)c(O)c(Br)cc2c2ccccc12 | 87.8 µM | > 100 µM | 31.1 µM | – | 72.4 µM | > 100 µM | > 100 µM | 89.9 µM | 75.4 µM | – | – | – | – | – | – | – | – | –
CCS(=O)(=O)c1ccc(OC)c(Nc2ncc(-c3cccc(-c4ccccc4F)c3)o2)c1 | > 25 µM | 20.7 µM | > 25 µM | – | > 25 µM | > 17.9 µM | > 25 µM | > 25 µM | > 25 µM | 12.1 µM | 6.1 µM | 10.8 µM | – | 2.45 µM | 20.3 µM | 3.79 µM | 23.9 µM | > 25 µM
O=C(/C=C\c1cccc([N+](=O)[O-])c1)c1ccccc1 | 4.91 µM | > 28.6 µM | 5.8 µM | – | 9.74 µM | 5.15 µM | 12.7 µM | 12.6 µM | > 100 µM | 2.01 µM | 2.62 µM | 2.53 µM | – | 2.01 µM | 4.95 µM | 3.38 µM | 1.07 µM | 2.81 µM
